From patent US10744150B2, “Cyclic dinucleotides as anticancer agents” (BRISTOL-MYERS SQUIBB COMPANY, priority 2017, dated 2020)
Read-outs that look alike come from different tables or passages of the source.

Experiments:
IRF3 = assay: STING THP1 reporter assay, IRF pathway (secreted luciferase Lucia, QUANTI-Luc); format: cell-based; conditions: THP1-Dual cells, 10% human plasma, 100% activation = 100 μM cGAMP, luciferase readout, read-out: THP1 Reporter Assays EC50 IRF3
Source text: (§1) THP1-Dual™ cells were derived from the human THP-1 monocyte cell line by stable integration of two inducible reporter constructs. To this end, THP1-Dual™ cells allow the simultaneous study of the NF-κB pathway, by monitoring the activity of SEAP, and the IRF pathway by assessing the activity of a secreted luciferase (Lucia). Both reporter proteins are readily measurable in the cell culture supernatant when using QUANTI-Blue™, a SEAP detection reagent, and QUANTI-Luc™, a luciferase detection reagent.
(§2) THP1-Dual™ cells induce the activation of NF-κB in response to STING agonists. They also trigger the IRF pathway upon stimulation with STING agonists, such as cGAMP. Here, the THP-1-Dual cells were used to assess STING binders for function on the cellular level.
(§3) Serial dilutions of compounds in DMSO were added to low volume 384 well plates at 100 nl/well using an ECHO acoustic dispenser (Labcyte, model 550) to achieve final starting concentration of 100 μM in cell suspension. THP-1 Dual™ STING reporter cells (Invivogen, Dual cells cat # THPD-nfis) were added to the plates with compounds at 15,000 cells in 10 μL per well in RPMI media (Gibco, cat #11875) containing 10% human plasma in a low volume 384-well black wall clear bottom tissue culture plate (Corning, cat #3542) for SEAP assay and low volume solid white plate (Corning, cat #3826) for luciferase assay. One column of the plate was reserved for treatment with cGAMP at 100 μM for 100% activation calculation and one column for no treatment (DMSO only) for baseline activation. Plates were then incubated in 37° C. incubator at 5% CO2 for 20 hours.
(§4) In the SEAP assay, 5 μl of 2× QuantiBlue (Invivogen, cat # Rep-qb2) is added to 384 well black plates seeded with THP1 cells and incubated at 37° C. for 2 hours. Plates were read on the Envision (Perkin Elmer) at 620 nm wavelength (OD620). In the luciferase assay, 5 μl of Quantiluc (Invivogen, Rep-qlc2) is added to white 384 well plates seeded with THP1 cells and read at 5 minutes on the Envision (Perkin Elmer) using a luminescence protocol (RLU). For both cell lines, 100% activation was determined by value (RLU) of THP-1 Dual STING cells stimulated with 100 μM cGAMP (Invivogen, cat # TLRL-NACGA23-5).

NFkB = assay: STING THP1 reporter assay, NF-κB pathway (SEAP, QUANTI-Blue); format: cell-based; conditions: THP1-Dual cells, 10% human plasma, 20 hours; 100% activation = 100 μM cGAMP; SEAP readout OD620; read-out: THP1 Reporter Assays EC50 NFkB
Source text: as §1, §2, §3, §4

[1] = molecular target: T1, STING WT: His-TVMV-S-hSTING(155-341)-H232R (Homo sapiens, UniProt Q86WV6, H232R); assay: STING HTRF binding assay (time resolved FRET competition), STING WT; conditions: 20 nM His-tagged STING cytoplasmic domain, 200 nM fluorescein-labeled cGAMP analog probe, one hour; read-out: HTRF Binding Assays IC50 STING WT
T1 construct: His-TVMV-S-hSTING(155-341)-H232R
Procedure: (§5) A time resolved FRET-based competition binding assay was used to assess test article binding to STING WT and STING AQ. His-tagged STING cytoplasmic domain (WT or AQ) at a concentration of 20 nM was incubated with 2.5 nM Tb-labeled anti-His antibody, test compound, and fluorescein-labeled cGAMP analog probe (BioLog cat. no. C195) at a concentration of 200 nM (STING WT) or 40 nM (STING AQ) in PBS containing 0.005% Tween-20 and 0.1% BSA for one hour. Fluorescence at 495 nm and 520 nm was measured using an EnVision microplate reader to quantify FRET between Tb-labeled anti-His antibody and fluorescein-labeled probe. Background was defined as the signal obtained in the absence of STING protein, and background subtracted FRET ratios were normalized to the maximum signal obtained in the absence of test compound. These values were converted to a percent inhibition. Percent inhibition was determined for test compounds at 11 concentrations. The IC50, defined as the concentration of competing test compound needed to reduce specific binding of the probe by 50%, was calculated using the 4 parameter logistic equation to fit the data

[2] = molecular target: T2, STING AQ: His-TVMV-S-hSTING(155-341)-G230A-R293Q (Homo sapiens, UniProt Q86WV6, G230A/H232R/R293Q); assay: STING HTRF binding assay (time resolved FRET competition), STING AQ; conditions: 20 nM His-tagged STING cytoplasmic domain, 40 nM fluorescein-labeled cGAMP analog probe, one hour; read-out: HTRF Binding Assays IC50 STING AQ
T2 construct: His-TVMV-S-hSTING(155-341)-G230A-R293Q
Procedure: as §5

T1 sequence (Q86WV6 with tags, fused parts or gaps H232R): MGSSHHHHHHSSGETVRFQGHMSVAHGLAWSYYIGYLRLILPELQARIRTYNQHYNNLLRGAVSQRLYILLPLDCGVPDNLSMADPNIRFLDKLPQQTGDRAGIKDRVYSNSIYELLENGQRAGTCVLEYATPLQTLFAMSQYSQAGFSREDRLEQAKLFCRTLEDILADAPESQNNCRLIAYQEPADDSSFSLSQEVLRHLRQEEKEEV
T2 sequence (Q86WV6 with tags, fused parts or gaps G230A/H232R/R293Q): as the sequence (Q86WV6 with tags, fused parts or gaps H232R) above, with G99A, R162Q counted along it

| Compound | EC50 (IRF3; 20 hours) | EC50 (NFkB) | IC50 [1] | IC50 [2] | EC50 (IRF3; Homo sapiens, THP-1, 20 h) |
| --- | --- | --- | --- | --- | --- |
| Nc1ncnc2c1ncn2[C@@H]1C[C@@H]2COP(=O)(S)O[C@H]3[C@@H](F)[C@H](n4cnc5c(N)ncnc54)O[C@@H]3COP(=O)(S)OC[C@H]21 (single isomer, unassigned) [Example 1-1] | > 100 µM | > 100 µM | 1.6 µM | 0.06 µM |  |
| Nc1ncnc2c1ncn2[C@@H]1C[C@@H]2COP(=O)(S)O[C@H]3[C@@H](F)[C@H](n4cnc5c(N)ncnc54)O[C@@H]3COP(=O)(S)OC[C@H]21 (single isomer, unassigned) [Example 1-2] | 3 µM | 6 µM | 0.09 µM | 0.01 µM |  |
| Nc1ncnc2c1ncn2[C@@H]1C[C@@H]2COP(=O)(S)O[C@H]3[C@@H](F)[C@H](n4cnc5c(N)ncnc54)O[C@@H]3COP(=O)(S)OC[C@H]21 (single isomer, unassigned) [Example 2-1] | > 100 µM | > 100 µM | 24 µM | 0.21 µM |  |
| Nc1ncnc2c1ncn2[C@@H]1C[C@@H]2COP(=O)(S)O[C@H]3[C@@H](F)[C@H](n4cnc5c(N)ncnc54)O[C@@H]3COP(=O)(S)OC[C@H]21 (single isomer, unassigned) [Example 2-2] | 85 µM | > 100 µM | 0.88 µM | 0.01 µM |  |
| Nc1ncnc2c1ncn2[C@@H]1O[C@@H]2COP(O)(=S)OC[C@@H]3[C@@H](COP(O)(=S)O[C@H]2[C@H]1F)C[C@H]3n1cnc2c(O)nc3nccn3c21 (single isomer, unassigned) [Example 3-1] | > 100 µM | > 100 µM | 15 µM | 0.43 µM |  |
| Nc1ncnc2c1ncn2[C@@H]1O[C@@H]2COP(O)(=S)OC[C@@H]3[C@@H](COP(O)(=S)O[C@H]2[C@H]1F)C[C@H]3n1cnc2c(O)nc3nccn3c21 (single isomer, unassigned) [Example 3-2] | > 100 µM | > 100 µM | 4 µM | 0.46 µM |  |
| Nc1ncnc2c1ncn2[C@@H]1O[C@@H]2COP(O)(=S)OC[C@@H]3[C@@H](COP(O)(=S)O[C@H]2[C@H]1F)C[C@H]3n1cnc2c(O)nc3nccn3c21 (single isomer, unassigned) [Example 3-3] | 33 µM | 58 µM | 0.18 µM | 0.14 µM |  |
| Nc1ncnc2c1ncn2[C@@H]1O[C@@H]2COP(O)(=S)OC[C@@H]3[C@@H](COP(O)(=S)O[C@H]2[C@H]1F)C[C@H]3n1cnc2c(O)nc3nccn3c21 (single isomer, unassigned) [Example 3-4] | 31 µM | 40 µM | 1 µM | 0.09 µM |  |
| Nc1ncnc2c1ncn2[C@@H]1C[C@@H]2COP(O)(=S)O[C@H]3C[C@H](n4ccc5c(Cl)ncnc54)O[C@@H]3COP(=O)(S)OC[C@H]21 (single isomer, unassigned) [Example 6-2] | > 100 µM |  | > 100 µM | 82.6 µM |  |
| Nc1ncnc2c1ncn2[C@@H]1C[C@@H]2COP(O)(=S)O[C@H]3C[C@H](n4ccc5c(Cl)ncnc54)O[C@@H]3COP(=O)(S)OC[C@H]21 (single isomer, unassigned) [Example 6-3] | > 100 µM |  | > 100 µM | 31.9 µM |  |
| Nc1ncnc2c1ncn2[C@@H]1C[C@@H]2COP(O)(=S)O[C@H]3C[C@H](n4ccc5c(Cl)ncnc54)O[C@@H]3COP(=O)(S)OC[C@H]21 (single isomer, unassigned) [Example 6-4] | > 100 µM |  | > 100 µM | 14.8 µM |  |
| Nc1ncnc2c1ncn2[C@@H]1C[C@@H]2COP(O)(=S)O[C@H]3[C@H](F)[C@H](n4ccc5c(Cl)ncnc54)O[C@@H]3COP(O)(=S)OC[C@H]21 (single isomer, unassigned) [Example 7-2] | > 100 µM | > 100 µM | > 100 µM |  |  |
| Nc1ncnc2c1ccn2[C@@H]1O[C@@H]2COP(O)(=S)OC[C@@H]3[C@@H](COP(O)(=S)O[C@H]2[C@@H]1F)C[C@H]3n1cnc2c(N)ncnc21 (single isomer, unassigned) [Example 8-1] |  | 23 µM | > 100 µM |  | > 100 µM |
